According to US12662490B2, “Heterocyclic compounds” (Hoffmann-La Roche Inc., priority 2019, dated 2026):
pIC50: −log10 of the molar value.

Biological target: T1, MAGL (Homo sapiens, UniProt Q99685)
T1 sequence (Q99685 1-303): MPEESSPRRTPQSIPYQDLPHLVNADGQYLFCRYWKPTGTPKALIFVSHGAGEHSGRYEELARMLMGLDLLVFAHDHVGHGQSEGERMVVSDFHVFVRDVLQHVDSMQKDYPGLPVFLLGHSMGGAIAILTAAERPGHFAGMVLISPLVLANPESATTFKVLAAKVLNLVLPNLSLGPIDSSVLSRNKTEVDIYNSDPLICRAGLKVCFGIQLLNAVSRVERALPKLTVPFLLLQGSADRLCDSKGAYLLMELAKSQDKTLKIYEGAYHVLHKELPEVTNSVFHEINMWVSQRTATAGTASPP
Assay: 2-AG assay (MAGL inhibitory activity; hydrolysis of 2-arachidonoylglycerol to arachidonic acid followed by mass spectrometry)
Assay type: biochemical
Settings: 15 min preincubation at RT, 8 μM 2-arachidonoylglycerol, 30 min at RT, RapidFire MS readout
Procedure, shortened: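 Compounds (final 12.5 μM to […], 3-fold steps) preincubated 15 min at RT with MAGL ([…]) in 50 mM TRIS, 1 mM EDTA, Tween buffer. Reaction started with 8 μM 2-arachidonoylglycerol, run 30 min at RT, quenched with ACN containing d8-arachidonic acid. Arachidonic acid quantified by RapidFire SPE-triple quadrupole MS (negative ESI), activity from arachidonic acid/d8 ratio.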

Row | SMILES | pIC50
1 | O=C(c1cccc(-c2c[nH]nc2F)c1Cl)N1CCN2C[C@@H](c3ccc(C(F)(F)F)nn3)OC[C@@H]2C1 [Example 97, [(3S,9aS)-3-[6-(trifluoromethyl)pyridazin-3-yl]-3,4,6,7,9,9a-hexahydro-1H-pyrazino[2,1-c][1,4]oxazin-8-yl]-[2-chloro-3-(3-fluoro-1H-pyrazol-4-yl)phenyl]methanone] | 6.36
2 | COc1cccc(C(=O)N2CCN3C[C@@H](c4cc(C(F)(F)F)c(Cl)cn4)OC[C@@H]3C2)c1Cl [Example 98, (2-chloro-3-methoxy-phenyl)-[(3S,9aS)-3-[5-chloro-4-(trifluoromethyl)-2-pyridyl]-3,4,6,7,9,9a-hexahydro-1H-pyrazino[2,1-c][1,4]oxazin-8-yl]methanone] | 7.51
3 | COc1cccc(C(=O)N2CCN3C[C@@H](c4cc(OC(F)(F)F)ccn4)OC[C@@H]3C2)c1Cl [Example 99, (2-chloro-3-methoxy-phenyl)-[(3S,9aS)-3-[4-(trifluoromethoxy)-2-pyridyl]-3,4,6,7,9,9a-hexahydro-1H-pyrazino[2,1-c][1,4]oxazin-8-yl]methanone] | 6.55
4 | O=C(c1cccc(-c2c[nH]nc2F)c1Cl)N1CCN2C[C@@](O)(c3ccc(C(F)(F)F)[nH]c3=O)OC[C@@H]2C1 [Example 100, 3-[(3R,9aS)-8-[2-chloro-3-(3-fluoro-1H-pyrazol-4-yl)benzoyl]-3-hydroxy-1,4,6,7,9,9a-hexahydropyrazino[2,1-c][1,4]oxazin-3-yl]-6-(trifluoromethyl)-1H-pyridin-2-one] | 7.26
5 | COc1cccc(C(=O)N2CCN3C[C@@H](c4cc(C(F)(F)F)c(F)cn4)OC[C@@H]3C2)c1Cl [Example 101, (2-chloro-3-methoxy-phenyl)-[(3S,9aS)-3-[5-fluoro-4-(trifluoromethyl)-2-pyridyl]-3,4,6,7,9,9a-hexahydro-1H-pyrazino[2,1-c][1,4]oxazin-8-yl]methanone] | 6.88
6 | O=C(c1cccc(-c2cn[nH]c2C(F)(F)F)c1F)N1CCN2C[C@@H](c3ccc(F)c(Cl)c3)OC[C@@H]2C1 [Example 102, [(3R,9aS)-3-(3-chloro-4-fluoro-phenyl)-3,4,6,7,9,9a-hexahydro-1H-pyrazino[2,1-c][1,4]oxazin-8-yl]-[2-fluoro-3-[5-(trifluoromethyl)-1H-pyrazol-4-yl]phenyl]methanone] | 7.68
7 | O=C(c1cccc(-c2cn[nH]c2C(F)(F)F)c1)N1CCN2C[C@@H](c3ccc(F)c(Cl)c3)OC[C@@H]2C1 [Example 103, [(3R,9aS)-3-(3-chloro-4-fluoro-phenyl)-3,4,6,7,9,9a-hexahydro-1H-pyrazino[2,1-c][1,4]oxazin-8-yl]-[3-[5-(trifluoromethyl)-1H-pyrazol-4-yl]phenyl]methanone] | 7.55
8 | COc1cccc(C(=O)N2CCN3C[C@@H](c4cc(C(F)F)c(Cl)cn4)OC[C@@H]3C2)c1Cl [Example 104, (2-chloro-3-methoxy-phenyl)-[(3S,9aS)-3-[5-chloro-4-(difluoromethyl)-2-pyridyl]-3,4,6,7,9,9a-hexahydro-1H-pyrazino[2,1-c][1,4]oxazin-8-yl]methanone] | 7.05
9 | O=C(c1cccc(-c2cc[nH]c(=O)c2)c1Cl)N1CCN2C[C@@H](c3ccc(F)c(Cl)c3)OC[C@@H]2C1 [Example 105, 4-[3-[(3R,9aS)-3-(3-chloro-4-fluoro-phenyl)-3,4,6,7,9,9a-hexahydro-1H-pyrazino[2,1-c][1,4]oxazine-8-carbonyl]-2-chloro-phenyl]-1H-pyridin-2-one] | 8.05
10 | O=C(c1cccc(-c2ccc(=O)[nH]c2)c1Cl)N1CCN2C[C@@H](c3ccc(F)c(Cl)c3)OC[C@@H]2C1 [Example 106, 5-[3-[(3R,9aS)-3-(3-chloro-4-fluoro-phenyl)-3,4,6,7,9,9a-hexahydro-1H-pyrazino[2,1-c][1,4]oxazine-8-carbonyl]-2-chloro-phenyl]-1H-pyridin-2-one] | 7.84
11 | COc1cccc(C(=O)N2CCN3C[C@@H](c4cc(Br)c(Cl)cn4)OC[C@@H]3C2)c1Cl [Example 107, (2-chloro-3-methoxy-phenyl)-[(3S,9aS)-3-[5-chloro-4-bromo-2-pyridyl]-3,4,6,7,9,9a-hexahydro-1H-pyrazino[2,1-c][1,4]oxazin-8-yl]methanone] | 7.90
12 | O=C(c1cccc(N2CC(O)C2)c1Cl)N1CCN2C[C@@H](c3ccc(F)c(Cl)c3)OC[C@@H]2C1 [Example 108, [(3R,9aS)-3-(3-chloro-4-fluoro-phenyl)-3,4,6,7,9,9a-hexahydro-1H-pyrazino[2,1-c][1,4]oxazin-8-yl]-[2-chloro-3-(3-hydroxyazetidin-1-yl)phenyl]methanone] | 7.98
13 | N#Cc1cc(-c2cccc(C(=O)N3CCN4C[C@@](O)(c5ccc(F)c(Cl)c5)OC[C@@H]4C3)c2Cl)c[nH]1 [Example 109, 4-[3-[(3R,9aS)-3-(3-chloro-4-fluoro-phenyl)-3-hydroxy-1,4,6,7,9,9a-hexahydropyrazino[2,1-c][1,4]oxazine-8-carbonyl]-2-chloro-phenyl]-1H-pyrrole-2-carbonitrile] | 8.80
14 | COc1cccc(C(=O)N2CCN3C[C@@H](c4ccc(Br)c(Cl)c4)OC[C@@H]3C2)c1Cl [Example 110, [(3R,9aS)-3-(4-bromo-3-chloro-phenyl)-3,4,6,7,9,9a-hexahydro-1H-pyrazino[2,1-c][1,4]oxazin-8-yl]-(2-chloro-3-methoxy-phenyl)methanone] | 8.30
15 | COc1ccc(F)c(C(=O)N2CCN3C[C@@H](c4ccc(F)c(Cl)c4)OC[C@@H]3C2)c1Cl [Example 111, [(3R,9aS)-3-(3-chloro-4-fluoro-phenyl)-3,4,6,7,9,9a-hexahydro-1H-pyrazino[2,1-c][1,4]oxazin-8-yl]-(2-chloro-6-fluoro-3-methoxy-phenyl)methanone] | 8.24
16 | N#Cc1cc(-c2cc(F)cc(C(=O)N3CCN4C[C@@H](c5ccc(C(F)(F)F)[nH]c5=O)OC[C@@H]4C3)c2Cl)c[nH]1 [Example 112, 4-[3-[(3R,9aS)-3-[2-oxo-6-(trifluoromethyl)-1H-pyridin-3-yl]-3,4,6,7,9,9a-hexahydro-1H-pyrazino[2,1-c][1,4]oxazine-8-carbonyl]-2-chloro-5-fluoro-phenyl]-1H-pyrrole-2-carbonitrile] | 8.19
17 | N#Cc1cc(-c2cccc(C(=O)N3CCN4C[C@@](O)(c5ccc(F)c(F)c5)OC[C@@H]4C3)c2Cl)c[nH]1 [Example 113, 4-[3-[(3R,9aS)-3-(3,4-difluorophenyl)-3-hydroxy-1,4,6,7,9,9a-hexahydropyrazino[2,1-c][1,4]oxazine-8-carbonyl]-2-chloro-phenyl]-1H-pyrrole-2-carbonitrile] | 8.12
18 | O=C(c1cc(F)cc(-c2cc[nH]c(=O)c2)c1Cl)N1CCN2C[C@@H](c3ccc(F)c(Cl)c3)OC[C@@H]2C1 [Example 114, 4-[3-[(3R,9aS)-3-(3-chloro-4-fluoro-phenyl)-3,4,6,7,9,9a-hexahydro-1H-pyrazino[2,1-c][1,4]oxazine-8-carbonyl]-2-chloro-5-fluoro-phenyl]-1H-pyridin-2-one] | 7.97
19 | N#Cc1cc(-c2cc(F)cc(C(=O)N3CCN4C[C@@H](c5cc(Cl)c[nH]c5=O)OC[C@@H]4C3)c2Cl)c[nH]1 [Example 115, 4-[3-[(3R,9aS)-3-(5-chloro-2-oxo-1H-pyridin-3-yl)-3,4,6,7,9,9a-hexahydro-1H-pyrazino[2,1-c][1,4]oxazine-8-carbonyl]-2-chloro-5-fluoro-phenyl]-1H-pyrrole-2-carbonitrile] | 7.87
20 | COc1ccc(F)c(C(=O)N2CCN3C[C@@](O)(c4ccc(F)c(Cl)c4)OC[C@@H]3C2)c1Cl [Example 116, [(3R,9aS)-3-(3-chloro-4-fluoro-phenyl)-3-hydroxy-1,4,6,7,9,9a-hexahydropyrazino[2,1-c][1,4]oxazin-8-yl]-(2-chloro-6-fluoro-3-methoxy-phenyl)methanone] | 7.80
21 | N#Cc1cc(-c2cccc(C(=O)N3CCN4C[C@@H](c5cc(Cl)c[nH]c5=O)OC[C@@H]4C3)c2Cl)c[nH]1 [Example 117, 4-[3-[(3R,9aS)-3-(5-chloro-2-oxo-1H-pyridin-3-yl)-3,4,6,7,9,9a-hexahydro-1H-pyrazino[2,1-c][1,4]oxazine-8-carbonyl]-2-chloro-phenyl]-1H-pyrrole-2-carbonitrile] | 7.76
22 | O=C(c1cccc(-c2c[nH]c(=O)o2)c1Cl)N1CCN2C[C@@H](c3ccc(Cl)c(Cl)c3)OC[C@@H]2C1 [Example 118, 5-[3-[(3R,9aS)-3-(3,4-dichlorophenyl)-3,4,6,7,9,9a-hexahydro-1H-pyrazino[2,1-c][1,4]oxazine-8-carbonyl]-2-chloro-phenyl]-3H-oxazol-2-one] | 7.48
23 | COc1cccc(C(=O)N2CCN3C[C@@](O)(c4ccc(C(F)(F)F)cc4)OC[C@@H]3C2)c1Cl [Example 119, [(3R,9aS)-3-hydroxy-3-[4-(trifluoromethyl)phenyl]-1,4,6,7,9,9a-hexahydropyrazino[2,1-c][1,4]oxazin-8-yl]-(2-chloro-3-methoxy-phenyl)methanone] | 7.46
24 | COc1cccc(C(=O)N2CCN3C[C@@](O)(c4ccc(Cl)c(F)c4)OC[C@@H]3C2)c1Cl [Example 120, [(3R,9aS)-3-(4-chloro-3-fluoro-phenyl)-3-hydroxy-1,4,6,7,9,9a-hexahydropyrazino[2,1-c][1,4]oxazin-8-yl]-(2-chloro-3-methoxy-phenyl)methanone] | 7.37
